ChEMBL document CHEMBL3611969, “The effect of complexation of 3-formylrifamycin SV macrocyclic ether derivatives with metal cations and small nitrogen-containing organic molecules on antibacterial activity against S. aureus and S. epidermidis” (Bioorg Med Chem Lett, 2015)
Values after ≈ are worked out from the molar mass of the structure shown. Each block holds one molecule with its values, some of them ahead of it.

Key:
Staphylococcus aureus [1] = assay: Antibacterial activity against Staphylococcus aureus ATCC 6538 after 18 hrs by serial microdilution method; format: functional; conditions: ATCC 6538, 18 h
Staphylococcus aureus [2] = assay: Antibacterial activity against Staphylococcus aureus ATCC 4163 after 18 hrs by serial microdilution method; format: functional; conditions: ATCC 4163, 18 h
Staphylococcus aureus [3] = assay: Antibacterial activity against Staphylococcus aureus ATCC 25923 after 18 hrs by serial microdilution method; format: functional; conditions: ATCC 25923, 18 h
[4] = test system: Staphylococcus epidermidis; assay: Antibacterial activity against Staphylococcus epidermidis ATCC 12228 after 18 hrs by serial microdilution method; format: functional; conditions: ATCC 12228, 18 h
[5] = test system: Staphylococcus epidermidis; assay: Antibacterial activity against Staphylococcus epidermidis ATCC 49134 after 18 hrs by serial microdilution method; format: functional; conditions: ATCC 49134, 18 h
[6] = Solubility of the compound in water at pH 7; format: physicochemical
[7] = Octanol-water partition coefficient, log P of the compound by UV-vis method; format: physicochemical
Staphylococcus aureus [8] = assay: Antibacterial activity against Staphylococcus aureus ATCC 6538 after 18 hrs by serial microdilution method in presence of isoniazid; format: functional; conditions: ATCC 6538, 18 h
Staphylococcus aureus [9] = assay: Antibacterial activity against Staphylococcus aureus ATCC 6538 after 18 hrs by serial microdilution method in presence of 2-chlorobenzylamine; format: functional; conditions: ATCC 6538, 18 h
Staphylococcus aureus [10] = assay: Antibacterial activity against Staphylococcus aureus ATCC 6538 after 18 hrs by serial microdilution method in presence of 4-fluorobenzylamine; format: functional; conditions: ATCC 6538, 18 h
Staphylococcus aureus [11] = assay: Antibacterial activity against Staphylococcus aureus ATCC 6538 after 18 hrs by serial microdilution method in presence of histamine; format: functional; conditions: ATCC 6538, 18 h
Staphylococcus aureus [12] = assay: Antibacterial activity against Staphylococcus aureus ATCC 4163 after 18 hrs by serial microdilution method in presence of 2-chlorobenzylamine; format: functional; conditions: ATCC 4163, 18 h
Staphylococcus aureus [13] = assay: Antibacterial activity against Staphylococcus aureus ATCC 4163 after 18 hrs by serial microdilution method in presence of 4-fluorobenzylamine; format: functional; conditions: ATCC 4163, 18 h
Staphylococcus aureus [14] = assay: Antibacterial activity against Staphylococcus aureus ATCC 4163 after 18 hrs by serial microdilution method in presence of isoniazid; format: functional; conditions: ATCC 4163, 18 h
Staphylococcus aureus [15] = assay: Antibacterial activity against Staphylococcus aureus ATCC 4163 after 18 hrs by serial microdilution method in presence of histamine; format: functional; conditions: ATCC 4163, 18 h
Staphylococcus aureus [16] = assay: Antibacterial activity against Staphylococcus aureus ATCC 25923 after 18 hrs by serial microdilution method in presence of 2-chlorobenzylamine; format: functional; conditions: ATCC 25923, 18 h
Staphylococcus aureus [17] = assay: Antibacterial activity against Staphylococcus aureus ATCC 25923 after 18 hrs by serial microdilution method in presence of 4-fluorobenzylamine; format: functional; conditions: ATCC 25923, 18 h
Staphylococcus aureus [18] = assay: Antibacterial activity against Staphylococcus aureus ATCC 25923 after 18 hrs by serial microdilution method in presence of isoniazid; format: functional; conditions: ATCC 25923, 18 h
Staphylococcus aureus [19] = assay: Antibacterial activity against Staphylococcus aureus ATCC 25923 after 18 hrs by serial microdilution method in presence of histamine; format: functional; conditions: ATCC 25923, 18 h
[20] = test system: Staphylococcus epidermidis; assay: Antibacterial activity against Staphylococcus epidermidis ATCC 12228 after 18 hrs by serial microdilution method in presence of 2-chlorobenzylamine; format: functional; conditions: ATCC 12228, 18 h
[21] = test system: Staphylococcus epidermidis; assay: Antibacterial activity against Staphylococcus epidermidis ATCC 12228 after 18 hrs by serial microdilution method in presence of 4-fluorobenzylamine; format: functional; conditions: ATCC 12228, 18 h
[22] = test system: Staphylococcus epidermidis; assay: Antibacterial activity against Staphylococcus epidermidis ATCC 12228 after 18 hrs by serial microdilution method in presence of isoniazid; format: functional; conditions: ATCC 12228, 18 h
[23] = test system: Staphylococcus epidermidis; assay: Antibacterial activity against Staphylococcus epidermidis ATCC 12228 after 18 hrs by serial microdilution method in presence of histamine; format: functional; conditions: ATCC 12228, 18 h
[24] = test system: Staphylococcus epidermidis; assay: Antibacterial activity against Staphylococcus epidermidis ATCC 49134 after 18 hrs by serial microdilution method in presence of 2-chlorobenzylamine; format: functional; conditions: ATCC 49134, 18 h
[25] = test system: Staphylococcus epidermidis; assay: Antibacterial activity against Staphylococcus epidermidis ATCC 49134 after 18 hrs by serial microdilution method in presence of 4-fluorobenzylamine; format: functional; conditions: ATCC 49134, 18 h
[26] = test system: Staphylococcus epidermidis; assay: Antibacterial activity against Staphylococcus epidermidis ATCC 49134 after 18 hrs by serial microdilution method in presence of isoniazid; format: functional; conditions: ATCC 49134, 18 h
[27] = test system: Staphylococcus epidermidis; assay: Antibacterial activity against Staphylococcus epidermidis ATCC 49134 after 18 hrs by serial microdilution method in presence of histamine; format: functional; conditions: ATCC 49134, 18 h

MIC (Staphylococcus aureus [1]): 2 µg/mL (≈ 2.01 µM)
MIC (Staphylococcus aureus [8]): 1 µg/mL
MIC (Staphylococcus aureus [9]): 0.5 µg/mL
MIC (Staphylococcus aureus [10]): 0.5 µg/mL
MIC (Staphylococcus aureus [11]): 0.125 µg/mL
MIC (Staphylococcus aureus [2]): 2 µg/mL (≈ 2.01 µM)
MIC (Staphylococcus aureus [12]): 0.5 µg/mL
MIC (Staphylococcus aureus [13]): 0.5 µg/mL
MIC (Staphylococcus aureus [14]): 1 µg/mL
MIC (Staphylococcus aureus [15]): 0.125 µg/mL
MIC (Staphylococcus aureus [3]): 2 µg/mL (≈ 2.01 µM)
MIC (Staphylococcus aureus [16]): 0.5 µg/mL
MIC (Staphylococcus aureus [17]): 0.5 µg/mL
MIC (Staphylococcus aureus [18]): 1 µg/mL
MIC (Staphylococcus aureus [19]): 0.125 µg/mL
MIC [4]: 0.5 µg/mL (≈ 0.503 µM)
MIC [20]: 0.25 µg/mL
MIC [21]: 0.25 µg/mL
MIC [22]: 0.25 µg/mL
MIC [23]: 1.25 µg/mL
MIC [5]: 0.5 µg/mL (≈ 0.503 µM)
MIC [24]: 0.25 µg/mL
MIC [25]: 0.25 µg/mL
MIC [26]: 0.25 µg/mL
MIC [27]: 0.125 µg/mL
logP [7]: 0.2
SMILES: CO[C@H]1/C=C/O[C@@]2(C)Oc3c(C)c(O)c4c(O)c(c(CNc5ccc6c(c5)OCCOCCOCCOCCO6)c(O)c4c3C2=O)NC(=O)/C(C)=C\C=C\[C@H](C)[C@H](O)[C@@H](C)[C@@H](O)[C@@H](C)[C@H](OC(C)=O)[C@@H]1C

MIC (Staphylococcus aureus [1]): 1 µg/mL (≈ 0.921 µM)
MIC (Staphylococcus aureus [8]): 1 µg/mL
MIC (Staphylococcus aureus [9]): 0.25 µg/mL
MIC (Staphylococcus aureus [10]): 0.25 µg/mL
MIC (Staphylococcus aureus [11]): 0.125 µg/mL
MIC (Staphylococcus aureus [2]): 2 µg/mL (≈ 1.84 µM)
MIC (Staphylococcus aureus [12]): 0.25 µg/mL
MIC (Staphylococcus aureus [13]): 0.25 µg/mL
MIC (Staphylococcus aureus [14]): 1 µg/mL
MIC (Staphylococcus aureus [15]): 0.125 µg/mL
MIC (Staphylococcus aureus [3]): 2 µg/mL (≈ 1.84 µM)
MIC (Staphylococcus aureus [16]): 0.25 µg/mL
MIC (Staphylococcus aureus [17]): 0.25 µg/mL
MIC (Staphylococcus aureus [18]): 1 µg/mL
MIC (Staphylococcus aureus [19]): 0.125 µg/mL
MIC [4]: 0.5 µg/mL (≈ 0.461 µM)
MIC [20]: 0.25 µg/mL
MIC [21]: 0.25 µg/mL
MIC [22]: 0.5 µg/mL
MIC [23]: 1.25 µg/mL
MIC [5]: 0.5 µg/mL (≈ 0.461 µM)
MIC [24]: 0.25 µg/mL
MIC [25]: 0.25 µg/mL
MIC [26]: 0.5 µg/mL
MIC [27]: 0.125 µg/mL
solubility [6]: < 50 µg/mL
logP [7]: 1.12
SMILES: CO[C@H]1/C=C/O[C@@]2(C)Oc3c(C)c(O)c4c(O)c(c(CNc5ccc6c(c5)OCCOCCOc5ccccc5OCCOCCO6)c(O)c4c3C2=O)NC(=O)/C(C)=C\C=C\[C@H](C)[C@H](O)[C@@H](C)[C@@H](O)[C@@H](C)[C@H](OC(C)=O)[C@@H]1C

MIC (Staphylococcus aureus [1]): > 4 µg/mL
MIC (Staphylococcus aureus [2]): > 4 µg/mL
MIC (Staphylococcus aureus [3]): > 4 µg/mL
MIC [4]: > 4 µg/mL
MIC [5]: > 4 µg/mL
SMILES: NNC(=O)c1ccncc1 [ISONIAZID]

The next lines start with the molecule.

SMILES: CO[C@H]1/C=C/O[C@@]2(C)Oc3c(C)c(O)c4c(O)c(c(CN5CCOCCOCCOCCOCCOCC5)c(O)c4c3C2=O)NC(=O)/C(C)=C\C=C\[C@H](C)[C@H](O)[C@@H](C)[C@@H](O)[C@@H](C)[C@H](OC(C)=O)[C@@H]1C
MIC (Staphylococcus aureus [1]): 4 µg/mL (≈ 4.11 µM)
MIC (Staphylococcus aureus [2]): 4 µg/mL (≈ 4.11 µM)
MIC (Staphylococcus aureus [3]): > 4 µg/mL
MIC [4]: 2 µg/mL (≈ 2.06 µM)
MIC [5]: 2 µg/mL (≈ 2.06 µM)
solubility [6]: 1200 µg/mL (≈ 1230 µM)
logP [7]: -0.54

SMILES: [Li+].[O-][Cl+3]([O-])([O-])[O-]
MIC (Staphylococcus aureus [1]): > 4 µg/mL
MIC (Staphylococcus aureus [2]): > 4 µg/mL
MIC (Staphylococcus aureus [3]): > 4 µg/mL
MIC [4]: > 4 µg/mL
MIC [5]: > 4 µg/mL

SMILES: NCCc1c[nH]cn1 [HISTAMINE]
MIC (Staphylococcus aureus [1]): > 4 µg/mL
MIC (Staphylococcus aureus [2]): > 4 µg/mL
MIC (Staphylococcus aureus [3]): > 4 µg/mL
MIC [4]: > 4 µg/mL
MIC [5]: > 4 µg/mL

SMILES: CO[C@H]1/C=C/O[C@@]2(C)Oc3c(C)c(O)c4c(O)c(c(/C=N/N5CCN(C)CC5)c(O)c4c3C2=O)NC(=O)/C(C)=C\C=C\[C@H](C)[C@H](O)[C@@H](C)[C@@H](O)[C@@H](C)[C@H](OC(C)=O)[C@@H]1C [RIFAMPIN]
MIC (Staphylococcus aureus [1]): 0.016 µg/mL (≈ 0.0194 µM)
MIC (Staphylococcus aureus [2]): 0.016 µg/mL (≈ 0.0194 µM)
MIC (Staphylococcus aureus [3]): 0.016 µg/mL (≈ 0.0194 µM)
MIC [4]: 0.008 µg/mL (≈ 0.00972 µM)
MIC [5]: 0.008 µg/mL (≈ 0.00972 µM)

SMILES: [Na+].[O-][Cl+3]([O-])([O-])[O-] [SODIUM PERCHLORATE]
MIC (Staphylococcus aureus [1]): > 4 µg/mL
MIC (Staphylococcus aureus [2]): > 4 µg/mL
MIC (Staphylococcus aureus [3]): > 4 µg/mL
MIC [4]: > 4 µg/mL
MIC [5]: > 4 µg/mL
